Here are results for 8 compounds from US7029870B1 (priority 1997, dated 2006).

Experiment [1] concerns the target T1, α2/β1/ε GABAA receptors (Homo sapiens, UniProt P18505+P47869+P78334, S102A).
T1 sequence (P47869 29-451): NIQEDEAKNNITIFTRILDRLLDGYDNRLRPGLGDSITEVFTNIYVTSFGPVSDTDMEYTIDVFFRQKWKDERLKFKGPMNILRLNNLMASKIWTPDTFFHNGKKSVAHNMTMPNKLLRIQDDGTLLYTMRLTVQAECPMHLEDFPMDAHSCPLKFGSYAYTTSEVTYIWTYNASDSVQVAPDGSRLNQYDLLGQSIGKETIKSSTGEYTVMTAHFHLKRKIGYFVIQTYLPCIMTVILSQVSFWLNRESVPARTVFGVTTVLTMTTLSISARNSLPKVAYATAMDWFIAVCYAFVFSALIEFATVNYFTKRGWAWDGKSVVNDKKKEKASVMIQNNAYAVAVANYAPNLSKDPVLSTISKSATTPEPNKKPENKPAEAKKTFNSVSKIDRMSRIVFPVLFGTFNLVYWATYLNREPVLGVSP
T1 sequence (P18505 26-474): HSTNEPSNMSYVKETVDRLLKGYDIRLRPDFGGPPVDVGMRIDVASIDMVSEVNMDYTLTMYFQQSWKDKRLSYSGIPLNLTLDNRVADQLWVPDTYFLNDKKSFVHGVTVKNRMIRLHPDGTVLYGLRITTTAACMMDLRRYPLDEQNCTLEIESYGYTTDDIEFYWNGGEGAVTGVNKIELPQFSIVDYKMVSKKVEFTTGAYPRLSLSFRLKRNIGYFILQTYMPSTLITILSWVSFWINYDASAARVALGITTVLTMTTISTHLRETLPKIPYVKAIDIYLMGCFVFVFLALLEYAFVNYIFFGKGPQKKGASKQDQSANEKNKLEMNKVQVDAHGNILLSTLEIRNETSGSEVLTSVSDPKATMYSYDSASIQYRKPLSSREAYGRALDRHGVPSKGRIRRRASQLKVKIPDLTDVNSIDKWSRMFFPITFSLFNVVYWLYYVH
T1 sequence (P78334 23-506 S102A): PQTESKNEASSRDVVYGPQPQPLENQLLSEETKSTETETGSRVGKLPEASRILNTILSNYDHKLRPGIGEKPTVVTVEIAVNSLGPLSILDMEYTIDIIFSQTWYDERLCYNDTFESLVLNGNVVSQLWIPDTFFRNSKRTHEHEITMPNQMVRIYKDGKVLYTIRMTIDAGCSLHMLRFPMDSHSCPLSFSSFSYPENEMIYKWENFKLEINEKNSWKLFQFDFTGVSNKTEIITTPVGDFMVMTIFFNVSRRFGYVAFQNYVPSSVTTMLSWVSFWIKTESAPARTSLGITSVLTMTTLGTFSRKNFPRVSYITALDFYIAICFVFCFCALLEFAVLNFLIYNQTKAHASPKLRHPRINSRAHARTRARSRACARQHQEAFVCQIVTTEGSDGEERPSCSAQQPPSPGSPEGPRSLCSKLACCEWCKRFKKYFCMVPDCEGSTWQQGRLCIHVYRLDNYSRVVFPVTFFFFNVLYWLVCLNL
Conditions: α2/β1/ε subunits.

Experiment [2] addresses T1, α2/β1/ε GABAA receptors. The format is cell-based. Set-up: The ε-subunit open reading frame was amplified from a hippocampal cDNA library; expressed in transfected cells; host or cells: HEK-293 (transient, calcium phosphate). To be noted: for Block of GABA-evoked currents: inhibitor 10 μM, bath applied.
Another experiment deals with α/β/ε GABAA receptors. As to the kind of experiment: Benzodiazepine radioligand binding to membranes of cells transfected with α-, β- and ε-subunits. Set-up: species or system human, rat. Conditions: radioligand 1–50 nM.
Another experiment concerns the target T2, α1/β3/ε GABAA receptors (UniProt P28472+P62813+P78334, S102A).
T2 construct: The ε-subunit open reading frame was amplified from a hippocampal cDNA library; expressed in transfected cells; host or cells: HEK-293 (transient, calcium phosphate); membranes prepared from the transfected cells
Set-up: species or system rat α1, human β3, human ε. Conditions: α1/β3/ε subunits; read-out: Maximal stimulation of [3H]muscimol binding to cell membranes.

The test system of experiment [3] is α/β/ε GABAA receptors (α2/β1/ε or α1/β3/ε).

On to 5α-pregnan-3α-ol-20-one [pregnanolone], for which, at α2/β1/ε GABAA receptors [1], the “Effect on [35S]TBPS binding” value was “no stimulatory phase”. Besides, the “Effect on submaximal GABA-activated currents” value at α2/β1/ε GABAA receptors [2] (concentrations up to 100 nM, α2/β1/ε) was “No significant effects”. The “Potentiation of submaximal GABA-activated currents” value at α2/β1/ε GABAA receptors [2] (high concentrations of the steroid, α2/β1/ε) is on record as “up to 73%”.

With `NCCCC(=O)O` [GABA, γ-aminobutyric acid], the “Reversal potential of GABA-evoked currents” value at α2/β1/ε GABAA receptors [2] (100 μM GABA, α2/β1/ε, linear fit) came to 5.7 mV. In addition, the “Hill slope of GABA concentration-response” value on α2/β1/ε GABAA receptors [2] (α2/β1/ε cDNAs) came to 1.1.

For `CCOC(=O)c1ncn2c1CN(C)C(=O)c1cc(F)ccc1-2` [[^3H]flumazenil, flumazenil], the “Binding to transfected cell membranes” value in the experiment with α/β/ε GABAA receptors is reported as “did not bind”.

With `CN1C(=O)CN=C(c2ccccc2F)c2cc([N+](=O)[O-])ccc21` [[^3H]flunitrazepam, flunitrazepam], in the experiment with α/β/ε GABAA receptors, the “Binding to transfected cell membranes” value is reported as “did not bind”.

For `CN1CCc2cc3c(cc2[C@H]1[C@@H]1OC(=O)c2c1ccc1c2OCO1)OCO3` [bicuculline], the “Block of GABA-evoked currents” value at α2/β1/ε GABAA receptors [2] (α2/β1/ε) is given as 73.6±9.3%.

For the compound `CCCC(C)C1(CC)C(=O)NC(=O)NC1=O` (stereo not drawn) [pentobarbital], the Emax on α1/β3/ε GABAA receptors was less than 15%. For the same compound, the “Enhancement of GABA-evoked currents” value in experiment [3] was “blocked the ability”.

Consider `CC(C)c1cccc(C(C)C)c1O` [propofol, 2,6-diisopropylphenol], for which the “Enhancement of GABA-evoked currents” value in experiment [3] is listed as “blocked the ability”.

Turning to picrotoxin, the “Block of GABA-evoked currents” value on α2/β1/ε GABAA receptors [2] (α2/β1/ε) is recorded as 82.5±7.4%.
